Data published in patent US8889874B2, “Imidazolone-chalcone derivatives as potential anticancer agent and process for the preparation thereof” (Council of Scientific and Industrial Research, priority 2010, dated 2014).
Where two headings read alike, the source gives them in different places.

What was measured:
Format in all cases: cell-based, human
U251 (CNS) = experiment: NCI anticancer screen, SRB assay, 48 h; settings: Homo sapiens
Summary of the method: (§1)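 Compounds were tested across fifty three human cancer cell lines from nine tumour types. Each line got a dose-response curve of at least five concentrations at 10-fold dilutions, with continuous drug exposure and sulforhodamine B protein staining to estimate viability or growth.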

UO-31 (renal) = experiment: NCI anticancer screen, SRB assay, 48 h; settings: Homo sapiens
Summary of the method: as §1

[1] = system: NCI-H460 (non-small cell lung); experiment: NCI anticancer screen, SRB assay, 48 h; settings: Homo sapiens
Summary of the method: as §1

SK-MEL-2 (melanoma) = experiment: NCI anticancer screen, SRB assay, 48 h; settings: Homo sapiens
Summary of the method: as §1

NCI/ADR-RES (ovarian) = experiment: NCI anticancer screen, SRB assay, 48 h; settings: Homo sapiens, NCI/ADR-RES
Summary of the method: as §1

RXF 393 (renal) = experiment: NCI anticancer screen, SRB assay, 48 h; settings: Homo sapiens
Summary of the method: as §1

SN12C (renal) = experiment: NCI anticancer screen, SRB assay, 48 h; settings: Homo sapiens, SN12C
Summary of the method: as §1

HCC-2998 (colon) = experiment: NCI anticancer screen, SRB assay, 48 h; settings: Homo sapiens
Summary of the method: as §1

[2] = system: HOP-62 (non-small cell lung); experiment: NCI anticancer screen, SRB assay, 48 h; settings: Homo sapiens
Summary of the method: as §1

M14 (melanoma) = experiment: NCI anticancer screen, SRB assay, 48 h; settings: Homo sapiens
Summary of the method: as §1

[3] = system: HOP-92 (non-small cell lung); experiment: NCI anticancer screen, SRB assay, 48 h; settings: Homo sapiens
Summary of the method: as §1

OVCAR-5 (ovarian) = experiment: NCI anticancer screen, SRB assay, 48 h; settings: Homo sapiens
Summary of the method: as §1

SK-MEL-28 (melanoma) = experiment: NCI anticancer screen, SRB assay, 48 h; settings: Homo sapiens
Summary of the method: as §1

SNB-19 (CNS) = experiment: NCI anticancer screen, SRB assay, 48 h; settings: Homo sapiens
Summary of the method: as §1

SF-539 (CNS) = experiment: NCI anticancer screen, SRB assay, 48 h; settings: Homo sapiens
Summary of the method: as §1

COLO 205 (colon) = experiment: NCI anticancer screen, SRB assay, 48 h; settings: Homo sapiens, COLO 205
Summary of the method: as §1

ACHN (renal) = experiment: NCI anticancer screen, SRB assay, 48 h; settings: Homo sapiens
Summary of the method: as §1

Colon cancer cell lines = experiment: NCI anticancer screen, SRB assay, panel summary; settings: for GI50: Homo sapiens
Summary of the method: as §1

[4] = system: Melanoma cancer cell lines; experiment: NCI anticancer screen, SRB assay, panel summary; settings: for GI50: Homo sapiens
Summary of the method: as §1

[5] = system: Prostate cancer cell lines; experiment: NCI anticancer screen, SRB assay, panel summary
Summary of the method: as §1

[6] = system: Non-small cell lung cancer cell lines; experiment: NCI anticancer screen, SRB assay, panel summary; settings: Homo sapiens
Summary of the method: as §1

[7] = system: Leukemia cancer cell lines; experiment: NCI anticancer screen, SRB assay, panel summary; settings: Homo sapiens
Summary of the method: as §1

Breast cancer cell lines = experiment: NCI anticancer screen, SRB assay, panel summary; settings: Homo sapiens
Summary of the method: as §1

CNS cancer cell lines = experiment: NCI anticancer screen, SRB assay, panel summary; settings: for GI50: Homo sapiens
Summary of the method: as §1

[8] = system: Ovarian cancer cell lines; experiment: NCI anticancer screen, SRB assay, panel summary; settings: Homo sapiens
Summary of the method: as §1

Renal cancer cell lines = experiment: NCI anticancer screen, SRB assay, panel summary; settings: Homo sapiens
Summary of the method: as §1

[9] = 48 h exposure, SRB, read-out: GI50
[10] = read-out: pGI50 (-log of molar concentration causing 50% inhibition of net cell growth) (converted)

## O=C(/C=C/c1cccc(O)c1)c1cccc(-n2cc(-c3ccc4ccccc4c3)[nH]c2=O)c1 [12b, 1-3-[(E)-3-(3-hydroxyphenyl)-2-propenoyl]phenyl-4-(2-naphthyl)-2,3-dihydro-1H-2-imidazolone]
U251 (CNS); U-251, 48 h exposure, SRB, read-out: GI50
  GI50: 1.09 µM
U251 (CNS); U-251, read-out: pGI50 (-log of molar concentration causing 50% inhibition of net cell growth) (converted)
  GI50: 1.1 µM
UO-31 (renal); [9]
  GI50: 1.26 µM
UO-31 (renal); [10]
  GI50: 1.26 µM
[1]; [9]
  GI50: 1.67 µM
[1]; [10]
  GI50: 1.66 µM
SK-MEL-2 (melanoma); [9]
  GI50: 2.31 µM
SK-MEL-2 (melanoma); [10]
  GI50: 2.29 µM
NCI/ADR-RES (ovarian); NCl/ADR-RES, 48 h exposure, SRB, read-out: GI50
  GI50: 1.55 µM
NCI/ADR-RES (ovarian); [10]
  GI50: 1.55 µM
RXF 393 (renal); RXF 393, 48 h exposure, SRB, read-out: GI50
  GI50: 1.41 µM
RXF 393 (renal); RXF-393, read-out: pGI50 (-log of molar concentration causing 50% inhibition of net cell growth) (converted)
  GI50: 1.41 µM
SN12C (renal); SN 12C, read-out: pGI50 (-log of molar concentration causing 50% inhibition of net cell growth) (converted)
  GI50: 1.45 µM
SN12C (renal); [9]
  GI50: 1.44 µM
HCC-2998 (colon); [9]
  GI50: 2.13 µM
HCC-2998 (colon); [10]
  GI50: 2.14 µM
[2]; [9]
  GI50: 2.26 µM
[2]; [10]
  GI50: 2.24 µM
M14 (melanoma); [9]
  GI50: 1.49 µM
M14 (melanoma); [10]
  GI50: 1.48 µM
[3]; [9]
  GI50: 0.51 µM
[3]; [10]
  GI50: 0.513 µM
OVCAR-5 (ovarian); [9]
  GI50: 1.89 µM
OVCAR-5 (ovarian); [10]
  GI50: 1.91 µM
SK-MEL-28 (melanoma); [9]
  GI50: 3.79 µM
SK-MEL-28 (melanoma); [10]
  GI50: 3.8 µM
SNB-19 (CNS); [9]
  GI50: 1.32 µM
SNB-19 (CNS); [10]
  GI50: 1.32 µM
SF-539 (CNS); [9]
  GI50: 1.55 µM
SF-539 (CNS); [10]
  GI50: 1.55 µM
COLO 205 (colon); COLO205, read-out: pGI50 (-log of molar concentration causing 50% inhibition of net cell growth) (converted)
  GI50: 2.09 µM
COLO 205 (colon); [9]
  GI50: 2.09 µM
ACHN (renal); [9]
  GI50: 1.57 µM
ACHN (renal); [10]
  GI50: 1.58 µM
Colon cancer cell lines; Colon panel, log of concentration leading to 50% net cell death
  mean graph midpoint (MG_MID) of Log10 LC50: 5.08
Colon cancer cell lines; Colon panel, log of concentration in mol/L causing 50% inhibition of net cell growth, read-out: mean graph midpoint (MG_MID) of Log10 GI50 (converted)
  GI50: 1.02 µM
Colon cancer cell lines; seven colon cancer cell lines, exposure at least 48 hrs, read-out: GI50, range over the panel
  GI50: 0.22 to 2.13 µM
[4]; Melanoma panel, log of concentration in mol/L causing 50% inhibition of net cell growth, read-out: mean graph midpoint (MG_MID) of Log10 GI50 (converted)
  GI50: 1.95 µM
[4]; nine melanoma cancer cell lines, exposure at least 48 hrs, read-out: GI50, range over the panel
  GI50: 0.85 to 4.13 µM
[4]; Melanoma panel, log of concentration leading to 50% net cell death
  mean graph midpoint (MG_MID) of Log10 LC50: 4.62
[5]; Homo sapiens, log of concentration in mol/L causing 50% inhibition of net cell growth, read-out: mean graph midpoint (MG_MID) of Log10 GI50 (converted)
  GI50: 1.86 µM
[5]; Homo sapiens, log of concentration leading to 50% net cell death, read-out: mean graph midpoint (MG_MID) of Log10 LC50 (converted)
  LC50: 79.4 µM
[5]; log of concentration resulting in total inhibition of net cell growth
  mean graph midpoint (MG_MID) of Log10 TGI: 5.10
[6]; Non-small cell lung panel, log of concentration in mol/L causing 50% inhibition of net cell growth, read-out: mean graph midpoint (MG_MID) of Log10 GI50 (converted)
  GI50: 1.74 µM
[6]; Non-small cell lung panel, log of concentration leading to 50% net cell death, read-out: mean graph midpoint (MG_MID) of Log10 LC50 (converted)
  LC50: 20 µM
[6]; nine non-small cell lung cancer cell lines, exposure at least 48 hrs, read-out: GI50, range over the panel
  GI50: 0.51 to 3.38 µM
[7]; Leukemia panel, log of concentration in mol/L causing 50% inhibition of net cell growth, read-out: mean graph midpoint (MG_MID) of Log10 GI50 (converted)
  GI50: 1.55 µM
[7]; Leukemia panel, log of concentration leading to 50% net cell death, read-out: mean graph midpoint (MG_MID) of Log10 LC50 (converted)
  LC50: ≥ 100 µM
[7]; two leukemia cancer cell lines (RPMI-8226 and K-562), exposure at least 48 hrs, read-out: GI50, range over the panel
  GI50: 1.43 to 1.67 µM
Breast cancer cell lines; Breast panel, log of concentration in mol/L causing 50% inhibition of net cell growth, read-out: mean graph midpoint (MG_MID) of Log10 GI50 (converted)
  GI50: 1.29 µM
Breast cancer cell lines; Breast panel, log of concentration leading to 50% net cell death, read-out: mean graph midpoint (MG_MID) of Log10 LC50 (converted)
  LC50: 31.6 µM
Breast cancer cell lines; five breast cancer cell lines, exposure at least 48 hrs, read-out: GI50, range over the panel
  GI50: 0.47 to 2.01 µM
CNS cancer cell lines; CNS panel, log of concentration leading to 50% net cell death
  mean graph midpoint (MG_MID) of Log10 LC50: 5.04
CNS cancer cell lines; CNS panel, log of concentration in mol/L causing 50% inhibition of net cell growth, read-out: mean graph midpoint (MG_MID) of Log10 GI50 (converted)
  GI50: 1.48 µM
CNS cancer cell lines; six CNS cancer cell lines, exposure at least 48 hrs, read-out: GI50, range over the panel
  GI50: 1.09 to 1.88 µM
[8]; Ovarian panel, log of concentration in mol/L causing 50% inhibition of net cell growth, read-out: mean graph midpoint (MG_MID) of Log10 GI50 (converted)
  GI50: 1.82 µM
[8]; Ovarian panel, log of concentration leading to 50% net cell death, read-out: mean graph midpoint (MG_MID) of Log10 LC50 (converted)
  LC50: 25.7 µM
[8]; six ovarian cancer cell lines, exposure at least 48 hrs, read-out: GI50, range over the panel
  GI50: 1.33 to 2.33 µM
Renal cancer cell lines; Renal panel, log of concentration in mol/L causing 50% inhibition of net cell growth, read-out: mean graph midpoint (MG_MID) of Log10 GI50 (converted)
  GI50: 8.91 µM
Renal cancer cell lines; Renal panel, log of concentration leading to 50% net cell death, read-out: mean graph midpoint (MG_MID) of Log10 LC50 (converted)
  LC50: 10.2 µM
Renal cancer cell lines; eight renal cancer cell lines, exposure at least 48 hrs, read-out: GI50, range over the panel
  GI50: 1.26 to 3.45 µM
